Among the test systems are A549; EKVX; HCT-116; HOP-18; HOP-62; HOP-92; HT-29; LOX IMVI; NCI-H460; OVCAR-4; OVCAR-8; RPMI-8226; SK-MEL-28; SW-620; HCT-15; Hs-578T; PC-3; SF-539; SK-OV-3; T47D.
What all share (assay): NCI anticancer screen, dose series, 48 h

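Briefly, cells in 96-well plates were exposed to five compound concentrations for 48 h, and endpoints were estimated by linear interpolation. GI50 = concentration required for 50% inhibition of growth.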 Activity calls are given as the source filed them. Cut-off read from the data, not from the text of the source: active = GI50 up to about 1.1 µM and inactive = higher. Bounds are passed on as bounds.

On to `COc1ccc(/C(=N\NC(=O)NN)C(c2ccc(OC)cc2)C2(O)C(=O)Nc3c(Cl)cc(Cl)cc32)cc1` (configuration not stated), for which the GI50 in the assay with A549 is > 100 µM (inactive); in the assay on EKVX it was > 100 µM (inactive); with HCT-116 it was 56.8 µM (inactive); in the assay on HOP-18, > 100 µM (inactive); in the assay with HOP-62, > 100 µM (inactive); in the assay on HOP-92, > 100 µM (inactive). Moreover, the GI50 is > 100 µM (inactive) in the assay with HT-29; 99.3 µM (inactive) with LOX IMVI; > 100 µM (inactive) in the assay on NCI-H460; > 100 µM (inactive) in the assay with OVCAR-4; > 100 µM (inactive) in the assay on OVCAR-8; 56.8 µM (inactive) in the assay with RPMI-8226. For the same molecule, the GI50 in the assay on SK-MEL-28 and in the assay with SW-620 was > 100 µM (inactive) in each case.
As for `OC1CCCC1C(O)(C(F)(F)F)C(F)(F)F` (configuration not stated), the GI50 was > 100 µM (inactive) with A549; > 100 µM (inactive) in the assay with EKVX; > 100 µM (inactive) with HCT-116; over 100 µM in the assay with HCT-15; > 100 µM (inactive) with HOP-62; > 100 µM (inactive) in the assay on HOP-92. Further, the GI50 in the assay with HT-29, in the assay with Hs-578T, in the assay with LOX IMVI, with NCI-H460, in the assay with OVCAR-4 and with OVCAR-8 was > 100 µM (inactive) each time. Also, the GI50 with PC-3, in the assay with RPMI-8226, in the assay with SF-539, in the assay with SK-MEL-28, in the assay with SK-OV-3 and in the assay on SW-620 was > 100 µM (inactive) throughout. In the assay on T47D, the GI50 is > 100 µM (inactive).
As for `Cc1ccc([N+](=O)[O-])cc1S(=O)(=O)Nc1ccc(C2=NOC(c3ccco3)C2)cc1` (configuration not stated), the GI50 was 21.9 µM (inactive) with A549; 24.2 µM (inactive) in the assay on EKVX; 16.4 µM (inactive) in the assay on HCT-116; 10.4 µM in the assay on HCT-15; 12.6 µM (inactive) in the assay with HOP-62; 29.2 µM (inactive) with HOP-92. The GI50 in the assay with HT-29 is 22.8 µM (inactive); in the assay on Hs-578T, 29.8 µM (inactive); with LOX IMVI it was 17.3 µM (inactive); in the assay with NCI-H460 it was 18.5 µM (inactive); with OVCAR-4 it was 14.9 µM (inactive); in the assay with OVCAR-8, 39.2 µM (inactive). The GI50 is 15.7 µM (inactive) in the assay with PC-3; 18.9 µM (inactive) with RPMI-8226; 23 µM (inactive) in the assay on SF-539; 18.2 µM (inactive) in the assay with SK-MEL-28; 28 µM (inactive) in the assay on SK-OV-3; 18.7 µM (inactive) with SW-620. Besides, the GI50 in the assay on T47D is 22.8 µM (inactive).
On to `O=C(O)CCCCCNC(=O)CCC(CN(CC(=O)OCc1ccccc1)CC(=O)OCc1ccccc1)N(CC(=O)OCc1ccccc1)CC(=O)OCc1ccccc1` (configuration not stated), for which the GI50 is 17.4 µM (inactive) in the assay on A549; 22 µM (inactive) with EKVX; 17.1 µM (inactive) with HCT-116; 17.9 µM with HCT-15; 20.1 µM (inactive) in the assay on HOP-62; 13.3 µM (inactive) with HOP-92. Further, the GI50 in the assay with HT-29 was 17.9 µM (inactive); in the assay with Hs-578T, 20.5 µM (inactive); in the assay on LOX IMVI it was 19.2 µM (inactive); in the assay with NCI-H460, 30.4 µM (inactive); in the assay on OVCAR-4, 16.9 µM (inactive); with OVCAR-8 it was 16.5 µM (inactive). For the same molecule, the GI50 with PC-3 was 17 µM (inactive); in the assay on RPMI-8226 it was 10.3 µM (inactive); in the assay with SF-539 it was 20.7 µM (inactive); with SK-MEL-28, 19 µM (inactive); in the assay with SK-OV-3 it was 13.3 µM (inactive); in the assay with SW-620, 22.1 µM (inactive). Moreover, in the assay with T47D, the GI50 was 17.2 µM (inactive).
For the molecule `CCC1C2Cc3ccc(O)cc3C1(CC)CCN2C` (configuration not stated), the GI50 in the assay with A549 was > 100 µM (inactive); in the assay with EKVX, > 100 µM (inactive); in the assay with HCT-116, > 100 µM (inactive); with HCT-15, over 100 µM; with HOP-62, > 100 µM (inactive); in the assay with HOP-92, > 100 µM (inactive). The GI50 in the assay with HT-29, in the assay on Hs-578T, in the assay with LOX IMVI, in the assay with NCI-H460, in the assay with OVCAR-4 and in the assay on OVCAR-8 was > 100 µM (inactive) in each case. The GI50 in the assay with PC-3, in the assay on RPMI-8226, in the assay on SF-539, in the assay on SK-MEL-28, in the assay with SK-OV-3 and in the assay on SW-620 was > 100 µM (inactive) each time. Moreover, the GI50 in the assay on T47D was > 100 µM (inactive).
Take `COC(=O)c1n[nH]c(C)c1/N=N/N(C)CCC#N`: the GI50 was 16.1 µM (inactive) in the assay with A549; 13.7 µM (inactive) in the assay with EKVX; 16.4 µM (inactive) in the assay with HCT-116; 14.2 µM in the assay on HCT-15; 18.8 µM (inactive) in the assay with HOP-62; 14.7 µM (inactive) with HOP-92. Moreover, the GI50 with HT-29 is 23.3 µM (inactive); in the assay on Hs-578T it was 20.8 µM (inactive); in the assay on LOX IMVI, 8.18 µM (inactive); in the assay with NCI-H460, 14.2 µM (inactive); with OVCAR-4, 12.9 µM (inactive); with OVCAR-8 it was 14.4 µM (inactive). In addition, the GI50 in the assay with PC-3 was 20 µM (inactive); in the assay with RPMI-8226, 10.2 µM (inactive); in the assay on SF-539 it was 15.2 µM (inactive); in the assay on SK-MEL-28, 29.8 µM (inactive); in the assay on SK-OV-3 it was 19.7 µM (inactive); with SW-620, 14 µM (inactive). Besides, in the assay with T47D, the GI50 was 14 µM (inactive).
Turning to `CC(=O)Nc1c2sscc-2n(C)c1=O` [THIOLUTIN], the GI50 with A549 is 1.55 µM (inactive); with EKVX, 1.87 µM (inactive); with HCT-116, 0.695 µM (active); in the assay with HCT-15, 1.32 µM; in the assay with HOP-62 it was 1.67 µM (inactive); in the assay on HOP-92 it was 2.23 µM (inactive). For the same molecule, the GI50 was 0.272 µM (active) in the assay on HT-29; 2.6 µM (inactive) in the assay with Hs-578T; 1.86 µM (inactive) with LOX IMVI; 0.537 µM (active) in the assay on NCI-H460; 1.56 µM (inactive) in the assay with OVCAR-4; 0.638 µM (active) in the assay on OVCAR-8. In addition, the GI50 with PC-3 is 1.58 µM (inactive); in the assay on RPMI-8226 it was 0.575 µM (active); in the assay with SF-539, 1.86 µM (inactive); in the assay on SK-MEL-28 it was 1.37 µM (inactive); with SK-OV-3, 1.2 µM (inactive); in the assay on SW-620, 0.664 µM (active). In the assay on T47D, the GI50 is 1.58 µM (inactive).
Consider `O=C1CSSCC(=O)Nc2ccccc2N1`, for which the GI50 in the assay with A549 was > 100 µM (inactive); in the assay on EKVX, > 100 µM (inactive); in the assay with HCT-116, > 100 µM (inactive); in the assay with HCT-15 it was over 100 µM; with HOP-62 it was > 100 µM (inactive); in the assay with HOP-92, > 100 µM (inactive). For the same molecule, the GI50 with HT-29, in the assay on Hs-578T, in the assay with LOX IMVI, in the assay on NCI-H460, in the assay with OVCAR-4 and with OVCAR-8 was > 100 µM (inactive) in each case. The GI50 in the assay on PC-3, in the assay on RPMI-8226, with SF-539, with SK-MEL-28, in the assay with SK-OV-3 and with SW-620 was > 100 µM (inactive) in each case. For the same molecule, the GI50 in the assay on T47D was > 100 µM (inactive).

Values taken from ChEMBL document CHEMBL1201862, “PubChem BioAssay data set” (2004).
